Assays:
[1] = Cytotoxic activity against human U937 cells assessed as reduction in cell viability after 72 hrs by MTT assay; type: functional, U-937
MT4 [2] = assay: Cytotoxic activity against human MT4 cells assessed as reduction in cell viability after 72 hrs by MTT assay; type: functional
[3] = Cytotoxic activity against human CEM13 cells assessed as reduction in cell viability after 72 hrs by MTT assay; type: functional
MT4 [4] = assay: Induction of apoptosis in human MT4 cells at 0.9 uM after 24 hrs by propidium iodide staining based FACS flow cytometry (reference value: 2.3%); type: functional
MT4 [5] = assay: Induction of apoptosis in human MT4 cells at 0.9 uM after 72 hrs by propidium iodide staining based FACS flow cytometry (reference value: 5.5%); type: functional
MT4 [6] = assay: Induction of apoptosis in human MT4 cells at 0.9 uM after 48 hrs by propidium iodide staining based FACS flow cytometry (reference value: 3.5%); type: functional

**Q.** Which CTD50 [1] does the source give for `COc1cccc2c1C(=O)c1c(O)c3c(c(O)c1C2=O)C[C@@](O)(C(=O)CO)C[C@@H]3O[C@H]1C[C@H](N)[C@H](O)[C@H](C)O1` [DOXORUBICIN] here?
**A.** Its CTD50 is 0.17 µM.

**Q.** What about the CTD50 (MT4 [2]) of the same compound?
**A.** The CTD50 was 2.76 µM.

**Q.** What about the CTD50 [3] of the same compound?
**A.** The CTD50 was 3.44 µM.

**Q.** Which CTD50 [1] does the source give for `COc1cc2c(cc1O)C1C=C(C(C)C)C[C@H]3CO[C@@H]2[C@@]13C` (some centres undefined) here?
**A.** The CTD50 was 210 µM.

**Q.** And the CTD50 (MT4 [2])?
**A.** The CTD50 was 150 µM.

**Q.** What about the CTD50 [3] of the same compound?
**A.** Its CTD50 is 136.7 µM.

**Q.** For `COc1cc2c(c(OC)c1OC)C1C=C(C(C)C)C[C@H]3CO[C@@H]2[C@@]13C` (some centres undefined), which CTD50 [1] is on record?
**A.** Its CTD50 is 66.9 µM.

**Q.** And the CTD50 (MT4 [2])?
**A.** The CTD50 was 200.6 µM.

**Q.** And the CTD50 [3]?
**A.** The CTD50 was 49.4 µM.

**Q.** Which results are given for `COc1cc2c(c(OC)c1O)C1C=C(C(C)C)C[C@H]3CO[C@@H]2[C@@]13C` (some centres undefined)?
**A.** CTD50 [1]: 136.4 µM; CTD50 (MT4 [2]): 224.2 µM; CTD50 [3]: 157.6 µM

**Q.** With `COc1cc(OC)c2c(c1OC)C1C=C(C(C)C)C[C@H]3CO[C@@H]2[C@@]13C` (some centres undefined) as the compound, how does the CTD50 [1] read?
**A.** The CTD50 was 116.3 µM.

**Q.** And the CTD50 (MT4 [2])?
**A.** Its CTD50 is over 250 µM.

**Q.** And the CTD50 [3]?
**A.** Its CTD50 is 81.4 µM.

**Q.** For `COc1cc2c(cc1O)[C@@H]1OC[C@@H]3CC(C(C)C)=CC2[C@@]31C` (some centres undefined), which Activity (MT4 [4]) is on record?
**A.** The Activity was 12.8%.

**Q.** And the Activity (MT4 [5])?
**A.** The Activity was 27.7%.

**Q.** What about the Activity (MT4 [6]) of the same compound?
**A.** Its Activity is 16.3%.

**Q.** What about the CTD50 [1] of the same compound?
**A.** Its CTD50 is 50 µM.

**Q.** And the CTD50 (MT4 [2])?
**A.** Its CTD50 is 0.93 µM.

**Q.** What about the CTD50 [3] of the same compound?
**A.** The CTD50 was 93.3 µM.

**Q.** For `CC(C)C1=CC2Oc3cc(O)ccc3[C@@H]3OC[C@H](C1)[C@]23C` (some centres undefined), which CTD50 [1] is on record?
**A.** Its CTD50 is 164.3 µM.

**Q.** What about the CTD50 (MT4 [2]) of the same compound?
**A.** Its CTD50 is 150.3 µM.

**Q.** What about the CTD50 [3] of the same compound?
**A.** The CTD50 was 111.9 µM.

Source: ChEMBL document CHEMBL3397014, “The short way to chiral compounds with hexahydrofluoreno[9,1-bc]furan framework: synthesis and cytotoxic activity” (2015)
